Data taken from ChEMBL document CHEMBL1146741, “Cycloalkyl[b][1,4]benzodiazepinoindoles are agonists at the human 5-HT2C receptor” (Bioorg Med Chem Lett, 2004).

Key:
[1] = target: Sodium-dependent serotonin transporter (Rattus norvegicus) (UniProt P31652); experiment: Percent binding affinity against serotonin transporter; settings: concentration not given here
[2] = target: 5-hydroxytryptamine receptor 2B (Homo sapiens) (UniProt P41595); experiment: Binding affinity against 5-hydroxytryptamine 2B receptor

Sodium-dependent serotonin transporter (Rattus norvegicus), sequence (P31652 whole entry, looked up): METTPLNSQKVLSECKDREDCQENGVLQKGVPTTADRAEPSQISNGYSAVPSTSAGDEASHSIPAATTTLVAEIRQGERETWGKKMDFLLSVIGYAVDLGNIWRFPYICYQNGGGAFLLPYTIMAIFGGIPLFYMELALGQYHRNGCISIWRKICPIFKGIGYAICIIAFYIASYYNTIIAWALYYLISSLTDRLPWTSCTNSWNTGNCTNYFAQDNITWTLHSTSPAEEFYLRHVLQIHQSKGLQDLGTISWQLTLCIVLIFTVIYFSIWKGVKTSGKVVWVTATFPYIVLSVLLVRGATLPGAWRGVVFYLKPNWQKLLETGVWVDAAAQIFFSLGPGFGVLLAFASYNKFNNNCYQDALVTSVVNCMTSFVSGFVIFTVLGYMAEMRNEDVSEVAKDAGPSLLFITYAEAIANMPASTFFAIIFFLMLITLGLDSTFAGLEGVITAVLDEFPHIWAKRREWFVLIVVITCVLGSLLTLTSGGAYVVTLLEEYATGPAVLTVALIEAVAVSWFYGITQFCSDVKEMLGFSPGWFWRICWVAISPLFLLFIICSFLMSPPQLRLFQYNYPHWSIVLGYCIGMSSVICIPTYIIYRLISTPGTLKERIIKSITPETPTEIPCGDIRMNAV

Compound `c1cc2c3c(c1)c1c(n3CCNC2)CCCCCC1` has an inhibition [1] of 14% and a Ki [2] greater than 5 µM.
